# US12377106B2, “Piperidinylpyrazine-carboxamide compounds for treating and preventing cancer and for degrading BTK” (NURIX THERAPEUTICS, INC., priority 2021, dated 2025)
# Entries after “also recorded” stand apart in the source; their conditions may differ.
# Legend:
# Type in all cases: in vivo, human
# [1] = Plasma concentrations of compound 149 after once daily oral dosing; details: all patients, once daily oral 100 mg or 200 mg
# Method: (§1) Compound 149 was administered to human patients in a Phase 1a/lb trial investigating safety and tolerability in relapsed and refractory B cell malignancies. Compound 149 was administered as a once daily oral dose first in an accelerated Phase 1a dose escalation starting at 100 mg on Day 1. The first dose levels are explored in a single patient cohort until a grade 2 adverse event has been observed. Thereafter, a traditional 3+3 escalation design is used. This 100 mg starting dose was predicted to provide similar exposure as that observed in non-human primate studies. Once a dose is selected based on all safety, efficacy, pharmacokinetic, and pharmacodynamic data available, the trial will expand in up to five expansion cohorts.
# BTK = experiment: Flow cytometry assay for BTK degradation in patient circulating B cells (CD19+CD3-), Phase 1a/1b trial
# Method: as §1
# […] of Bruton's tyrosine kinase were measured by flow cytometry in circulating B cells, including disease cells and provided in FIG. 2. This mean fluorescence intensity directly correlates with the levels of BTK protein observed in a Western blot. […] The patient's BTK levels start at different levels yet, the treatment results in the same level of degradation by Day 15, which is the first measurement after steady state concentration is achieved.
# The 100 mg patient achieved greater than 80% BTK degradation at steady state. All patients at the 200 mg dose level achieved greater than 90% degradation at steady state.
# The data is summarized in Table 3 below which provides the average percent BTK degradation during the last 2 weeks of the first cycle (namely Days 15, 22, and 29). In Cohort 2 (200 mg), well above 90% of BTK degradation was achieved during the steady state.
# Following informed consent, peripheral blood was obtained from all patients for baseline and post Compound 149 therapy assessment of BTK and Ikaros degradation. Patient blood (5 mL) was drawn and immediately fixed in a 5 mL CytoChex™ BCT tube and stored at ambient temperature until assessment via flow cytometry. Blood samples were analyzed within 3 days post sample collection at Precision for Medicine. Additional blood was also drawn into 8 mL BD Vacutainer® CPT™ Cell Preparation Tube with Sodium Citrate. Peripheral blood mononuclear cells (PBMCs) were processed, and viability frozen according to manufacturer's protocol.
# For flow staining, 1 mL blood was treated with 1×BD PharmLyse to facilitate red blood cell lysing. Remaining leukocytes were washed with staining buffer (SB) containing Dulbecco's Phosphate Buffered Saline (DPBS) without Calcium or Magnesium, 1% bovine serum albumin (BSA), 10 mM HEPES, 1 mM EDTA, and 0.01% sodium azide. Cell pellet was stained with fluorophore-conjugated cell surface markers antibodies against CD45, CD3, CD4, CD8, CD14, CD16, CD19 and CD56 prepared in BD Brilliant Stain buffer for 25 minutes at room temperature.
# Following cell surface staining, cells were washed twice with SB and then fixed and permeabilized for one hour at room temperature with eBioscience FoxP3/Transcription Factor Staining Buffer set according to the manufacturer's instructions. Washed cells were then stained with unconjugated BTK antibody made in 1× Permeabilization buffer) for 30 minutes. This was followed by another 30-minute incubation with anti-rabbit Alexa488 secondary antibody also prepared in 1× Permeabilization buffer for BTK detection. After incubation, the cells were washed twice with 1× Permeabilization Buffer and then resuspended in SB. Control samples containing fluorescence minus two markers (FM2) were used for background controls and were stained for all surface markers in the panel excluding BTK.
# The samples were transferred to BD TruCount tubes before acquisition on a BD LSR Fortessa using predetermined BD FACS Diva software (v8.0) application settings. Data analysis was performed using FlowJo software (v10).
# Single lymphocytes were gated for B cells (CD19+CD3−), and the geometric mean fluorescence intensity (MFI) of BTK was calculated. The MFI of B cells in FM2 control was used to quantify background staining. […]
# patients with CLL = experiment: Efficacy evaluations in CLL patients
# Method: Patients were treated at four different dosage levels of Compound 149: dose level 1 (100 mg), dose level 2 (200 mg), dose level 3 (300 mg), and dose level 4 (400 mg). The objective of the study was to assess safety and tolerability, to identify maximum tolerated dose, and to evaluate PK/PD.
# Patients evaluated in this study were treated for diseases or disorders selected from the group consisting of: chronic lymphocytic leukemia (CLL) with BTK C481 mutation (n 20); CLL without BTK C481 mutation (n˜20); mantle cell lymphoma (MCL), marginal zone lymphoma (MZL), Waldenstrom's macroglobulinemia (WM) (n˜20); follicular lymphoma (FL) (n˜20); and diffuse large B cell lymphoma (DLBCL) (n˜20). Heavily pretreated patient population, including double-refractory CLL patients.
# Data shown in FIG. 6 confirms that Compound 149 is a potent BTK degrader to solve inhibitor resistance observed with prior therapy.
# [2] = average of patients 1, 2, 3, 4, 6 (100 mg and 200 mg)
# [3] = average of patients with data (100 mg and 200 mg)
# [4] = patient 1 (CLL), 100 mg once daily oral
# [5] = patient 2 (CLL), 200 mg once daily oral
# [6] = patient 3 (MCL), 200 mg once daily oral
# [7] = patient 4 (WM), 200 mg once daily oral
# [8] = patient 6 (SLL), 200 mg once daily oral
smiles,measurement,setting,value
NC(=O)c1ncc(N2CCCCC2)nc1Nc1ccc(C2CCN(C[C@@H]3CCN(c4ccc5c(c4)C(=O)N(C4CCC(=O)NC4=O)C5=O)C3)CC2)cc1 (stereo partly drawn) [Compound 149],steady state plasma concentrations achieved by,[1],≤ 8 days
same,day on which maximum BTK degradation was achieved,"BTK; DLBCL patient, 300 mg, BTK MFI in CD19+ B cells, FIG. 8",8 days
same,duration of BTK degradation,"BTK; DLBCL patient, 300 mg, FIG. 8",sustained through day 29
same,duration of BTK degradation,"BTK; after steady state Cycle 1 Day 15, prior to starting Cycle 2",sustained through Cycle 1 Day 29
same,level of BTK protein in circulating B cells (BTK MFI),"BTK; all patients treated, once daily oral regimen",dramatically decreases the level of BTK protein in all patients treated; also recorded: time-dependent decrease of BTK levels
same,"% BTK Degraded, Day 2, Average",BTK; [2],56.5%
same,"% BTK Degraded, Day 8, Average",BTK; [2],80.4%
same,"% BTK Degraded, Day 22, Average",BTK; [3],92.1%
same,"% BTK Degraded, Day 29, Average",BTK; [3],90.1%
same,"% BTK Degraded, Day 15, Average","BTK; average of patients with data (100 mg and 200 mg), steady state Cycle 1 Day 15",90.1%
same,"BTK Degradation, Day 2",BTK; [4],62.8%
same,"BTK Degradation, Day 8",BTK; [4],76.9%
same,"BTK Degradation, Day 15",BTK; [4],78.0%
same,"BTK Degradation, Day 22",BTK; [4],85.5%
same,"BTK Degradation, Day 29",BTK; [4],82.0%
same,"BTK Degradation, Day 56",BTK; [4],81.4%
same,"BTK Degradation, Avg. Steady State","BTK; patient 1 (CLL), 100 mg once daily oral, average of Days 15, 22 and 29",81.8%
same,"BTK Degradation, Day 2",BTK; [5],75.1%
same,"BTK Degradation, Day 8",BTK; [5],90.5%
same,"BTK Degradation, Day 15",BTK; [5],96.1%
same,"BTK Degradation, Day 22",BTK; [5],95.4%
same,"BTK Degradation, Day 29",BTK; [5],96.1%
same,"BTK Degradation, Day 56",BTK; [5],96.0%
same,"BTK Degradation, Avg. Steady State","BTK; patient 2 (CLL), 200 mg once daily oral, average of Days 15, 22 and 29",95.9%
same,"BTK Degradation, Day 2",BTK; [6],74.0%
same,"BTK Degradation, Day 8",BTK; [6],92.7%
same,"BTK Degradation, Day 15",BTK; [6],94.6%
same,"BTK Degradation, Day 22",BTK; [6],95.4%
same,"BTK Degradation, Day 29",BTK; [6],92.3%
same,"BTK Degradation, Day 56",BTK; [6],94.7%
same,"BTK Degradation, Avg. Steady State","BTK; patient 3 (MCL), 200 mg once daily oral, average of Days 15, 22 and 29",94.1%
same,"BTK Degradation, Day 2",BTK; [7],63.6%
same,"BTK Degradation, Day 8",BTK; [7],56.8%
same,"BTK Degradation, Day 15",BTK; [7],91.5%
same,"BTK Degradation, Avg. Steady State","BTK; patient 4 (WM), 200 mg once daily oral, only Day 15 available",91.5%
same,"BTK Degradation, Day 2",BTK; [8],6.9%
same,"BTK Degradation, Day 8",BTK; [8],85.1%
same,BTK degradation at 24 hours after the initial dose,"BTK; patients 1, 2, 3 and 4, 100 mg or 200 mg",62.8-75.1%
same,BTK degradation at steady state,BTK; the 100 mg patient,greater than 80%
same,clinical activity / benefit in CLL patients,"patients with CLL; CLL patients with prior therapy (median of six prior treatments), 100 mg, FIG. 4",durable benefit; also recorded: showed clinical activity
same,nodal reductions and/or lymphocytosis,"patients with CLL; all evaluable CLL patients, FIG. 5",nodal reductions and/or lymphocytosis observed in all patients treated
same,responses in BTK inhibitor-resistant CLL patients,"patients with CLL; evaluable CLL patients, FIG. 5",responses in patients with resistance mutations to covalent and non-covalent BTK inhibitors
